Results reported in patent US20130309768A1, “METHOD FOR CULTURING HUMAN PLURIPOTENT STEM CELLS” (NATIONAL INSTITUTE OF BIOMEDICAL INNOVATION, priority 2011, published 2013).
No end group written: not given here. *: point of attachment. Myristoyl = CCCCCCCCCCCCCC(=O)*

Key:
human ES cells = settings: cited from earlier work
[1] = system: human iPS cell line Tic (JCRB1331); assay: Culture with protein kinase C peptide inhibitor, alkaline phosphatase staining; format: cell-based; settings: fourth day, FIG. 9
Description: Media comprising the activin-containing supplement+hESF-grow medium or the activin-free supplement+hESF-grow medium with fibronectin coating described in Example 3 and 0, 1, 2.5, 5, or 10 μM each of myristoylated protein kinase C peptide inhibitor (Myr. […]) (from Promega Corporation) added thereto were prepared, and used as first media containing a protein kinase C inhibitor and second media containing a protein kinase C inhibitor.
Human iPS cell line Tic (JCRB1331) was dispersed in the first medium containing a protein kinase C inhibitor and culturing was started. 60 hours after starting the culturing of the cell line Tic, a medium change into the second medium containing a protein kinase C inhibitor was conducted. Twice of medium changes were further conducted every 24 hours. On the fourth day after starting the culturing, the cells were fixed with 4.5 mM citric acid, 2.25 mM sodium citrate, 3 mM sodium chloride, 65% methanol and 4% paraformaldehyde for five minutes. Alkaline phosphatase staining was conducted with FastRed substrate kit (from Sigma Chemical Co.) according to the guidance of the manufacturer.

[2] = system: ERK (extracellular signal-regulated kinases); settings: addition of activin; cited from earlier work
[3] = system: embryonal cancer cell line PA-1 (JCRB9061); assay: Cell adhesion to ECM-coated microplates (comparative example); format: cell-based; settings: hESF9 medium, one hour culture; FIG. 1(c)
Description: (§1) The inventors studied on the substitution of ECMs such as collagen I, gelatin, laminin, fibronectin, and the like, which are recently used as a cell support in place of feeder cells, from animal-derived materials to animal product-free ingredients. Studies were conducted with human ES cell line KhES-1 (Laboratory of embryonic stem Cell research Center, Institute for Frontier Medical Sciences, Kyoto University), and human iPS cell line Tic (JCRB1331) (JSCB cell bank, National Institute of Biomedical Innovation); and the embryonal cancer cell line PA-1 (JCRB9061) (JSCB cell bank, National institute of Biomedical Innovation) was used as a comparative example.
(§2) Using 96 well microplates (from Corning Incorporated), each of collagen I (from Nitta Gelatin Inc.), gelatin (from Sigma Chemical Co.), laminin (from Sigma Chemical Co.), and fibronectin (from Sigma Chemical Co.) was treated at 37° C. for 3 hours, with avoiding being dried, to coat the microplates with each at 0.01, 0.05, 0.1, 0.5, 1, 5 and 10 μg/cm^2. The aforementioned hESF9 medium was added, and then human ES cell line KhES-1 and human iPS cell line Tic (JCRB1331), and embryonal cancer cell line PA-1 (JCRB9061) were seeded at […], after counting their cell numbers. After culturing the cells for two days (or culturing the embryonal cancer cell line PA-1 (JCRB9061) for one hour), the cells were fixed and nuclei of adhered cells were stained with 0.4% crystal violet (from Sigma Chemical Co.) dissolved in methanol for 30 minutes. The microplates were washed and then dried. The cells were lysed with 0.1 M sodium citrate dissolved in 50% methanol, and absorbance at 595 nm was measured with a microplate reader (model 550, from Bio-Rad Laboratories, Inc.).
Embryonal cancer cell line PA-1 (JCRB9061) was studied on the adhesion ability to the various ECNs described above.

[4] = system: human iPS cell line Tic (JCRB1331); assay: Cell adhesion to ECM-coated microplates (crystal violet, absorbance 595 nm); format: cell-based; settings: coating 0.01-10 μg/cm^2, hESF9 medium, two days culture; FIG. 1(b)
Description: as §1, §2

[5] = system: human ES cell line KhES-1; assay: as above; format: cell-based; settings: coating 0.01-10 μg/cm^2, hESF9 medium, two days culture; FIG. 1(a)
Description: as §1, §2

cell line H9 (WA09) = assay: Culture with fibronectin added to the medium, cell appearance; format: cell-based, human; settings: 0, 20, 40, 80, 160, 320 μg/well tested; 9.6 cm^2 well, 3 mL medium; FIG. 8
Description: (§3) In a 6 well plate (from Becton, Dickinson and Company), first media containing fibronectin were prepared by adding 10 μg/mL recombinant human insulin, 5 μg/mL recombinant human transferrin (apo), 10 μM 2-mercaptoethanol, 10 μM 2-ethanolamine, 20 nM sodium selenite, 9.4 μg/mL oleic acid complexed with 1 mg/mL recombinant human albumin, and 2 ng/mL recombinant human activin to the hESF-grow medium, and further adding 0, 20, 40, 80, 160, or 320 μg/well of bovine fibronectin to each well.
as §3, with “second” for “first”, “adding” for “adding 10 μg/mL recombinant human insulin,”, “selenate and” for “selenite,”, “albumin” for “human albumin, and 2 ng/mL recombinant human activin”
The cell line H9 (WA09) was cultured similarly to the culturing on fibronectin coating described above, except that the first medium and the second medium described in the above section on fibronectin coating were replaced with the first media containing fibronectin and the second media containing fibronectin, and cells were cultured at varying concentrations of fibronectin in respective wells. The area of 1 well in the used plate was 9.6 cm^2, and 3 mL each of the medium was added.

murine ES cells = settings: serum-free medium; cited from earlier work
pluripotent stem cells = assay: Cytokeratin expression of cells cultured on laminin; format: cell-based, human

For O=S(=O)(O)CCN1CCN(CCO)CC1 [HEPES], the “effect on the maintenance of human ES cells” value (human ES cells; added into serum-free medium) is listed as “very adverse effect”.
With “Myr. RFARKGALRQKNV (Myristoyl-RFARKGALRQKNV)” the proliferation ([1]; 1 to 2.5 μM in medium) was “increase in proliferation” and the “suppression of differentiation compared to no inhibitor” value ([1]; 1 to 5 μM in medium) was “further suppression of differentiation”.
For activin, the ERK activation [2] is given as “activates ERK” and the “differentiation induction into the nerve or mesendoderm” value (human ES cells; addition of activin) is given as “promotes differentiation induction”.
With collagen the adhesion ability [3] was “strongest adhesion ability”, the “coating concentration at which adhesion ability was strongest” value [3] was “about 10 μg/cm^2” and the adhesion ability [4] was “weak adhesion ability”. The adhesion ability [5] was “weak adhesion ability”.
With fibronectin the adhesion ability [4] was “strongest adhesion ability”, the adhesion ability [5] was “strongest adhesion ability” and the “amount of fibronectin at which the undifferentiated state was best maintained” value (cell line H9 (WA09)) was 80 μg/well. For the same compound, the “effect on undifferentiated state / differentiation” value (murine ES cells) was “act to promote the differentiation”.
For gelatin, the adhesion ability [3] was “strongest adhesion ability”, the “coating concentration at which adhesion ability was strongest” value [3] was “about 10 μg/cm^2” and the adhesion ability [4] was “weak adhesion ability”. For the same compound, the adhesion ability [5] was “weak adhesion ability”.
In the case of heparin, the “proliferation of ES cells” value (human ES cells; added in the absence of FGF-2) is listed as “promotes the proliferation”.
For laminin, the cytokeratin expression (pluripotent stem cells) was “express cytokeratin strongly”, the adhesion ability [4] was “strongest adhesion ability” and the adhesion ability [5] was “strongest adhesion ability”. For the same compound, the “effect on undifferentiated state / differentiation” value (murine ES cells) was “act to promote the differentiation”.
